Source: PubChem BioAssay AID2060890 (Molecular Pharmacology Branch, DTP, NCI, 2025)

Tested on: LG0703-F948-PDC complex spheroid viability
Test: Anticancer human tumor LG0703-F948-PDC patient-derived lung adenocarcinoma cell line growth inhibition [RAS]
Details: for IC50: curve of first compound; for viability, T/C: stronger effect = lower value
Outline: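 Agents were tested in combination matrices in half-log decrements from a top concentration at or near clinical Cmax (10 microM if undetermined). Targets were multi-cell spheroids of tumour lines plus HUVEC and MSC stromal cells.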

[1] = second compound 0.000949 µM, first compound 0.0316 µM
[2] = second compound 0.000949 µM, first compound 0.1 µM
[3] = second compound 0.000949 µM, first compound 0.316 µM
[4] = second compound 0.000949 µM, first compound 1 µM
[5] = second compound 0.003 µM, first compound 0.0316 µM
[6] = second compound 0.003 µM, first compound 0.1 µM
[7] = second compound 0.003 µM, first compound 0.316 µM
[8] = second compound 0.003 µM, first compound 1 µM
[9] = second compound 0.00949 µM, first compound 0.0316 µM
[10] = second compound 0.00949 µM, first compound 0.1 µM
[11] = second compound 0.00949 µM, first compound 0.316 µM
[12] = second compound 0.00949 µM, first compound 1 µM
[13] = second compound 0.03 µM, first compound 0.0316 µM
[14] = second compound 0.03 µM, first compound 0.1 µM
[15] = second compound 0.03 µM, first compound 0.316 µM
[16] = second compound 0.03 µM, first compound 1 µM
[17] = second compound 0.0949 µM, first compound 0.0316 µM
[18] = second compound 0.0949 µM, first compound 0.1 µM
[19] = second compound 0.0949 µM, first compound 0.316 µM
[20] = second compound 0.0949 µM, first compound 1 µM
[21] = second compound 0.3 µM, first compound 0.0316 µM
[22] = second compound 0.3 µM, first compound 0.1 µM
[23] = second compound 0.3 µM, first compound 0.316 µM
[24] = second compound 0.3 µM, first compound 1 µM
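Note: spheroids exposed to agents for 7 days.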
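Throughout, for viability, T/C: 100% = DMSO vehicle wells.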

For CC(=O)OC12COC1CC(O)C1(C)C(=O)C(O)C3=C(C)C(OC(=O)C(O)C(NC(=O)OC(C)(C)C)c4ccccc4)CC(O)(C(OC(=O)c4ccccc4)C21)C3(C)C (stereo unspecified) + CCn1c(-c2cc(N3CCN(C)CC3)cnc2C(C)OC)c2c3cc(ccc31)-c1csc(n1)CC(NC(=O)C1CC1C)C(=O)N1CCCC(N1)C(=O)OCC(C)(C)C2, the IC50 (second compound 0.000949 µM) was less than 31.6 nM, the IC50 (second compound 0.003 µM) was less than 31.6 nM and the IC50 (second compound 0.00949 µM) was less than 31.6 nM. The IC50 (second compound 0.03 µM) was less than 31.6 nM, the IC50 (second compound 0.0949 µM) was less than 31.6 nM and the IC50 (second compound 0.3 µM) was less than 31.6 nM. For the same compound, the viability, T/C [1] was 37.4%, the viability, T/C [2] was 33.5% and the viability, T/C [3] was 37.2%. For the same compound, the viability, T/C [4] was 30.1%, the viability, T/C (second compound 0.000949 µM, first compound 3.16 µM) was 25.9% and the viability, T/C (second compound 0.000949 µM, first compound 10 µM) was 19.9%. For the same compound, the viability, T/C [5] was 23.8%, the viability, T/C [6] was 17% and the viability, T/C [7] was 23%. It also gave a viability, T/C [8] of 15.7%, a viability, T/C (second compound 0.003 µM, first compound 3.16 µM) of 12.3% and a viability, T/C (second compound 0.003 µM, first compound 10 µM) of 14.2%. For the same compound, the viability, T/C [9] was 11.2%, the viability, T/C [10] was 13.6% and the viability, T/C [11] was 12.8%. It also gave a viability, T/C [12] of 12%, a viability, T/C (second compound 0.00949 µM, first compound 3.16 µM) of 7.75% and a viability, T/C (second compound 0.00949 µM, first compound 10 µM) of 7.15%. For the same compound, the viability, T/C [13] was 6.77%, the viability, T/C [14] was 7.29% and the viability, T/C [15] was 9.54%. The viability, T/C [16] was 7.24%, the viability, T/C (second compound 0.03 µM, first compound 3.16 µM) was 6.73% and the viability, T/C (second compound 0.03 µM, first compound 10 µM) was 4.63%. For the same compound, the viability, T/C [17] was 7.39%, the viability, T/C [18] was 5.34% and the viability, T/C [19] was 4.2%. The viability, T/C [20] was 4.62%, the viability, T/C (second compound 0.0949 µM, first compound 3.16 µM) was 4% and the viability, T/C (second compound 0.0949 µM, first compound 10 µM) was 2.6%. For the same compound, the viability, T/C [21] was 9.13%, the viability, T/C [22] was 5.01% and the viability, T/C [23] was 3.87%. The viability, T/C [24] was 4.26%, the viability, T/C (second compound 0.3 µM, first compound 3.16 µM) was 3.58% and the viability, T/C (second compound 0.3 µM, first compound 10 µM) was 2.37%.

CCc1c2c(nc3ccc(O)cc13)-c1cc3c(c(=O)n1C2)COC(=O)[C@]3(O)CC + CCn1c(-c2cc(N3CCN(C)CC3)cnc2C(C)OC)c2c3cc(ccc31)-c1csc(n1)CC(NC(=O)C1CC1C)C(=O)N1CCCC(N1)C(=O)OCC(C)(C)C2 gave an IC50 (second compound 0.000949 µM) of 68.2 nM, an IC50 (second compound 0.003 µM) of less than 0.949 nM and an IC50 (second compound 0.00949 µM) of less than 0.949 nM. The IC50 (second compound 0.03 µM) was less than 0.949 nM, the IC50 (second compound 0.0949 µM) was less than 0.949 nM and the IC50 (second compound 0.3 µM) was less than 0.949 nM. The viability, T/C (second compound 0.000949 µM, first compound 0.000949 µM) was 74.3%, the viability, T/C (second compound 0.000949 µM, first compound 0.003 µM) was 84.5% and the viability, T/C (second compound 0.000949 µM, first compound 0.00949 µM) was 54.4%. For the same compound, the viability, T/C (second compound 0.000949 µM, first compound 0.03 µM) was 62%, the viability, T/C (second compound 0.000949 µM, first compound 0.0949 µM) was 49.7% and the viability, T/C (second compound 0.000949 µM, first compound 0.3 µM) was 24.4%. It also gave a viability, T/C (second compound 0.003 µM, first compound 0.000949 µM) of 46.3%, a viability, T/C (second compound 0.003 µM, first compound 0.003 µM) of 44.4% and a viability, T/C (second compound 0.003 µM, first compound 0.00949 µM) of 46%. It also gave a viability, T/C (second compound 0.003 µM, first compound 0.03 µM) of 40.1%, a viability, T/C (second compound 0.003 µM, first compound 0.0949 µM) of 31.9% and a viability, T/C (second compound 0.003 µM, first compound 0.3 µM) of 20%. The viability, T/C (second compound 0.00949 µM, first compound 0.000949 µM) was 25.6%, the viability, T/C (second compound 0.00949 µM, first compound 0.003 µM) was 19% and the viability, T/C (second compound 0.00949 µM, first compound 0.00949 µM) was 19.7%. For the same compound, the viability, T/C (second compound 0.00949 µM, first compound 0.03 µM) was 17%, the viability, T/C (second compound 0.00949 µM, first compound 0.0949 µM) was 17.2% and the viability, T/C (second compound 0.00949 µM, first compound 0.3 µM) was 11.3%. The viability, T/C (second compound 0.03 µM, first compound 0.000949 µM) was 13.3%, the viability, T/C (second compound 0.03 µM, first compound 0.003 µM) was 17.8% and the viability, T/C (second compound 0.03 µM, first compound 0.00949 µM) was 13.5%. For the same compound, the viability, T/C (second compound 0.03 µM, first compound 0.03 µM) was 15.7%, the viability, T/C (second compound 0.03 µM, first compound 0.0949 µM) was 10.4% and the viability, T/C (second compound 0.03 µM, first compound 0.3 µM) was 9.39%. For the same compound, the viability, T/C (second compound 0.0949 µM, first compound 0.000949 µM) was 14.1%, the viability, T/C (second compound 0.0949 µM, first compound 0.003 µM) was 12.5% and the viability, T/C (second compound 0.0949 µM, first compound 0.00949 µM) was 9.68%. For the same compound, the viability, T/C (second compound 0.0949 µM, first compound 0.03 µM) was 9.08%, the viability, T/C (second compound 0.0949 µM, first compound 0.0949 µM) was 12.3% and the viability, T/C (second compound 0.0949 µM, first compound 0.3 µM) was 9.68%. It also gave a viability, T/C (second compound 0.3 µM, first compound 0.000949 µM) of 11.7%, a viability, T/C (second compound 0.3 µM, first compound 0.003 µM) of 9.88% and a viability, T/C (second compound 0.3 µM, first compound 0.00949 µM) of 8.36%. The viability, T/C (second compound 0.3 µM, first compound 0.03 µM) was 8.45%, the viability, T/C (second compound 0.3 µM, first compound 0.0949 µM) was 7.32% and the viability, T/C (second compound 0.3 µM, first compound 0.3 µM) was 4.88%.

With Nc1ccn(C2OC(CO)C(O)C2(F)F)c(=O)n1 (stereo unspecified) + CCn1c(-c2cc(N3CCN(C)CC3)cnc2C(C)OC)c2c3cc(ccc31)-c1csc(n1)CC(NC(=O)C1CC1C)C(=O)N1CCCC(N1)C(=O)OCC(C)(C)C2 the IC50 (second compound 0.000949 µM) was 6.69 nM, the IC50 (second compound 0.003 µM) was less than 3.16 nM and the IC50 (second compound 0.00949 µM) was less than 3.16 nM. For the same compound, the IC50 (second compound 0.03 µM) was less than 3.16 nM, the IC50 (second compound 0.0949 µM) was less than 3.16 nM and the IC50 (second compound 0.3 µM) was less than 3.16 nM. For the same compound, the viability, T/C (second compound 0.000949 µM, first compound 0.00316 µM) was 65.9%, the viability, T/C (second compound 0.000949 µM, first compound 0.01 µM) was 42.5% and the viability, T/C [1] was 33.1%. It also gave a viability, T/C [2] of 40.5%, a viability, T/C [3] of 39.5% and a viability, T/C [4] of 36.2%. The viability, T/C (second compound 0.003 µM, first compound 0.00316 µM) was 46.4%, the viability, T/C (second compound 0.003 µM, first compound 0.01 µM) was 31.9% and the viability, T/C [5] was 34.1%. It also gave a viability, T/C [6] of 28.7%, a viability, T/C [7] of 29.6% and a viability, T/C [8] of 32.8%. It also gave a viability, T/C (second compound 0.00949 µM, first compound 0.00316 µM) of 22.8%, a viability, T/C (second compound 0.00949 µM, first compound 0.01 µM) of 18.3% and a viability, T/C [9] of 17.4%. For the same compound, the viability, T/C [10] was 13.7%, the viability, T/C [11] was 19.2% and the viability, T/C [12] was 18.3%. The viability, T/C (second compound 0.03 µM, first compound 0.00316 µM) was 10.1%, the viability, T/C (second compound 0.03 µM, first compound 0.01 µM) was 11.4% and the viability, T/C [13] was 15.6%. It also gave a viability, T/C [14] of 14.2%, a viability, T/C [15] of 14.9% and a viability, T/C [16] of 10.5%. For the same compound, the viability, T/C (second compound 0.0949 µM, first compound 0.00316 µM) was 12.6%, the viability, T/C (second compound 0.0949 µM, first compound 0.01 µM) was 8.4% and the viability, T/C [17] was 9.27%. The viability, T/C [18] was 9.86%, the viability, T/C [19] was 8.62% and the viability, T/C [20] was 8.16%. The viability, T/C (second compound 0.3 µM, first compound 0.00316 µM) was 10.5%, the viability, T/C (second compound 0.3 µM, first compound 0.01 µM) was 7.77% and the viability, T/C [21] was 11%. For the same compound, the viability, T/C [22] was 6.54%, the viability, T/C [23] was 6.46% and the viability, T/C [24] was 5.98%.
